Results taken from PubChem BioAssay (NCI).
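Tested at 5 concentrations; 48 h exposure; 96-well plates; endpoints linearly interpolated, else capped at highest concentration. TGI is the concentration that stops growth completely.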

Assays:
Test in all cases: DTP human tumour cell line panel, 48 h
[1] = tested on: CAKI-1 renal
[2] = tested on: HCT-116 colon
[3] = tested on: HOP-92 NSCLC
[4] = tested on: HS 578T breast
[5] = tested on: IGROV1 ovarian
[6] = tested on: K-562 leukemia
[7] = tested on: M14 melanoma
[8] = tested on: MCF7 breast
[9] = tested on: NCI-H23 lung
[10] = tested on: OVCAR-3 ovarian
[11] = tested on: RPMI-8226 leukemia
[12] = tested on: RXF 393 renal
[13] = tested on: SN12C renal
[14] = tested on: SNB-19 CNS
[15] = tested on: OVCAR-4 ovarian
[16] = tested on: SK-MEL-28 melanoma
[17] = tested on: U251 CNS
[18] = tested on: PC-3 prostate
[19] = tested on: SR leukemia

SMILES	TGI [1]	TGI [2]	TGI [3]	TGI [4]	TGI [5]	TGI [6]	TGI [7]	TGI [8]	TGI [9]	TGI [10]	TGI [11]	TGI [12]	TGI [13]	TGI [14]	TGI [15]	TGI [16]	TGI [17]	TGI [18]	TGI [19]
Cc1ccc2[nH]c3[nH]c(=O)[nH]c(=O)c3c2c1	> 100 µM	> 100 µM	> 100 µM	> 100 µM	> 100 µM	> 100 µM	> 100 µM	> 100 µM	> 100 µM	> 100 µM	> 100 µM	> 100 µM	> 100 µM	> 100 µM					
CC(C)[Si](OC1=C(C(=O)N(C)c2ccccc2Cl)CCC1)(C(C)C)C(C)C	36.5 µM	37 µM	32.7 µM		33 µM		35.7 µM		29.8 µM	31.2 µM	49.6 µM	35.4 µM	31.6 µM	30 µM	38.1 µM	39.7 µM	31.1 µM		
COc1ccc(N2C(=O)/C(=C\c3cccc(Oc4ccccc4)c3)S(=O)(=O)C2c2ccccc2)cc1 (stereo not given)	> 100 µM	> 100 µM	> 100 µM			> 100 µM	> 100 µM	> 100 µM	> 100 µM	> 100 µM		> 100 µM	> 100 µM	> 100 µM	> 100 µM	> 100 µM	> 100 µM	> 100 µM	59.3 µM
OCC1OC(n2nc(-c3ccccc3)nc2-c2cnccn2)C(O)C1O (stereo not given)		> 100 µM	> 100 µM		> 100 µM	> 100 µM	> 100 µM	> 100 µM	> 100 µM	> 100 µM			> 100 µM	> 100 µM	> 100 µM	> 100 µM	> 100 µM	> 100 µM	
COc1ccc(N[C@H](CS(=O)c2ccc(C)cc2)C(F)(F)C(F)(F)F)cc1 (stereo not given in full)	> 100 µM	> 100 µM	64.5 µM	> 100 µM	> 100 µM	> 100 µM	> 100 µM	> 100 µM	> 100 µM	> 100 µM	> 100 µM	32.4 µM	> 100 µM	> 100 µM	> 100 µM	> 100 µM	> 100 µM		
CC(=O)O[C@H]1CC[C@@]2(C)C(=CC[C@@H]3[C@@H]2CC[C@]2(C)C(=N/O)/C(=C/c4ccc([N+](=O)[O-])cc4)C[C@@H]32)C1	6.1 µM	> 100 µM	62 µM	8.46 µM	55.8 µM	> 100 µM	47.7 µM		13.2 µM	11.3 µM	> 100 µM	> 100 µM	87.3 µM	37.1 µM	> 100 µM	> 100 µM		> 100 µM	
O=[N+]([O-])c1cccc2nc3ccccc3c(NCCCN3CCOCC3)c12	0.0785 µM	< 0.0298 µM	0.0434 µM	> 100 µM	0.084 µM		0.0233 µM	0.103 µM	0.0418 µM	0.0484 µM	0.187 µM	0.0294 µM	0.0455 µM	0.177 µM	0.0494 µM	0.138 µM	0.14 µM	0.0684 µM	
COC(=NCCC1=CCCCC1)OC	> 100 µM	> 100 µM	> 100 µM	> 100 µM	> 100 µM	> 100 µM	47.3 µM	> 100 µM	> 100 µM	> 100 µM	85.8 µM	> 100 µM		> 100 µM	> 100 µM	> 100 µM	> 100 µM	> 100 µM	
COc1ccc(C(C2C(=O)N(C)C(=O)N(C)C2=O)C(F)(F)C(=O)N(C)C)cc1 (stereo not given)	> 100 µM	> 100 µM	> 100 µM				> 100 µM	> 100 µM	> 100 µM	> 100 µM	> 100 µM	> 100 µM		> 100 µM	> 100 µM	> 100 µM	> 100 µM	> 100 µM	
C[C@@H](NC(=O)OC1C=CC2(CC1)C(=O)N(C)c1ccccc12)c1cccc2ccccc12 (stereo not given in full)	> 25 µM	> 25 µM	> 25 µM		> 25 µM	> 25 µM	> 25 µM	> 25 µM	> 25 µM	> 25 µM	> 25 µM		> 25 µM	> 25 µM	> 25 µM	> 25 µM	> 25 µM	> 25 µM	> 25 µM
COP1(=O)NCc2ncccc2O1 (stereo not given)	> 100 µM	> 100 µM	> 100 µM		> 100 µM	> 100 µM	> 100 µM	> 100 µM	> 100 µM	> 100 µM	> 100 µM	> 100 µM	> 100 µM	> 100 µM	> 100 µM	> 100 µM	> 100 µM	> 100 µM	> 100 µM
Cc1ccc(-n2c(Cn3nnc(-c4cccnc4)n3)nn(C3OC(COC(=O)c4ccccc4)C(OC(=O)c4ccccc4)C3OC(=O)c3ccccc3)c2=S)cc1 (stereo not given)	> 100 µM	> 100 µM		> 100 µM	> 100 µM	> 100 µM	> 100 µM	> 100 µM	> 100 µM	> 100 µM	> 100 µM	> 100 µM	> 100 µM	> 100 µM	> 100 µM	> 100 µM	> 100 µM	> 100 µM	
CCN1CC2=C(NC(=S)NC2c2cc(OC)c(OC)c(OC)c2)/C(=C/c2cc(OC)c(OC)c(OC)c2)C1 (stereo not given)	> 100 µM	> 100 µM	60.4 µM		> 100 µM	66.3 µM	> 100 µM	> 100 µM	> 100 µM	> 100 µM	42.9 µM	> 100 µM		> 100 µM	> 100 µM	47.2 µM	> 100 µM	> 100 µM	
CC(C)N=C(NC#N)NS(=O)(=O)c1cnccc1Nc1ccc(Cl)cc1	> 100 µM	> 100 µM		> 100 µM	> 100 µM	> 100 µM	> 100 µM	> 100 µM	> 100 µM	> 100 µM	> 100 µM	> 100 µM	> 100 µM	> 100 µM	> 100 µM	> 100 µM	> 100 µM	> 100 µM	
Cc1cc2c(cc1C)[n+](=O)c(N1CCN(c3ccc([N+](=O)[O-])cc3)CC1)c(C#N)n2[O-]	> 100 µM	> 100 µM	56.7 µM	> 100 µM	> 100 µM		> 100 µM	> 100 µM	> 100 µM		> 100 µM	29.9 µM	> 100 µM	49.6 µM	> 100 µM	> 100 µM	80.9 µM	> 100 µM	
CSc1nc2c(N)ncnc2n1C	> 100 µM	> 100 µM		> 100 µM	> 100 µM	> 100 µM	> 100 µM	> 100 µM		> 100 µM	> 100 µM	> 100 µM	> 100 µM	> 100 µM	> 100 µM	> 100 µM	> 100 µM	> 100 µM	
Cc1ccc(/C(=C/C=C(C#N)C#N)Sc2cc(Cl)ccc2Cl)cc1	19.9 µM	5.06 µM		9.23 µM	32.6 µM		16.4 µM	> 100 µM	16.1 µM	11.8 µM		27.8 µM	13.9 µM	22.3 µM	37.7 µM	28.9 µM	15 µM		
[N-]=[N+]=Nc1c([N+](=O)[O-])c(Cl)nc2ccccc12	4.58 µM	3.09 µM	3.66 µM	8.64 µM	4.04 µM	1.74 µM	3.27 µM	4.25 µM	6.64 µM	2.86 µM	> 20.8 µM	3.28 µM	5.32 µM	27.8 µM	4.75 µM	5.23 µM	12.4 µM	4.75 µM	
C=C(C)[C@@]1(O)CCC[C@H]1NC(=O)OC(C)(C)C	> 100 µM	> 100 µM	> 100 µM		> 100 µM		> 100 µM	> 100 µM	> 100 µM	> 100 µM		> 100 µM	> 100 µM	> 100 µM	> 100 µM	> 100 µM	> 100 µM	> 100 µM	
CC1(C)C2CCC3(OCCO3)C1C1OC12 (stereo not given)	> 100 µM	> 100 µM	> 100 µM			> 100 µM	> 100 µM		> 100 µM	> 100 µM	> 100 µM	> 100 µM		> 100 µM	> 100 µM	> 100 µM	> 100 µM		
Cc1ccc2c(=O)c(-c3nnc(N)s3)c[nH]c2n1	> 100 µM	> 100 µM		> 100 µM	> 100 µM	> 100 µM	> 100 µM	> 100 µM	> 100 µM	> 100 µM	> 100 µM	> 100 µM	> 100 µM	> 100 µM	> 100 µM	> 100 µM	> 100 µM	> 100 µM	
O=C(Nc1nc2ccc([N+](=O)[O-])cc2[n+]([O-])n1)C(F)(F)F	> 100 µM	60.1 µM	> 100 µM		44.5 µM	79.3 µM	> 100 µM	52.4 µM	80.3 µM		41.4 µM	> 100 µM	> 100 µM	> 100 µM	> 100 µM	> 100 µM	> 100 µM	> 100 µM	> 100 µM
